Type in all cases: in vivo
Data set [1] relates to inflammation pain of the rat. The data set is described as follows: Effect on the inflammation pain of the rat (Randall-Selitto, yeast-injected paw). The settings on record: male Chbb:THOM-rats, oral (esophageal tube), dose raising pain threshold by 50% vs controls. On the procedure:
The test arrangement corresponded to that indicated by RANDALL-SELITTO [Arch. Int. Pharmacodyn. 111, 409 (1957)]. Male Chbb:THOM-rats having body weights of from 100 to 130 grams received a subplantar injection of 0.1 ml of a 5% suspension of yeast cells in 5.55% glucose solution in a rear paw. At 11/2 and 21/4 hours, respectively, after injection of the phlogistic, the animals received various doses of the test substance as a trituration in 1% methyl cellulose (1 ml/100 g of animal) through an esophageal tube. Control animals received corresponding volumes of the vehicle.
Ninety and forty-five minutes, respectively, after application of the test substance (that is, three hours after the subplantar injection of the yeast suspension), the threshold pain was determined in the rat in terms of the […] of bearing pressure on a paw, based on the weight of the animals.
From the pain threshold, measured according to the different doses of the test substance, and with the linear regression analysis according to LINDER [Statistische Methoden, 4th ed., pp. 148-162, Birkhauser, Basel, 1964], and ED50 dose with the confidence limits according to FIELLER [Quart. J. Pharm. Pharmacol., 17, 117 (1944)] was determined. The ED50 dose is one in which the pain threshold rises by 50%, as compared to the controls.

The next data set relates to heat pain of the mouse. The data set is described as follows: Effect on the heat sensitivity of the mouse (hot plate, 52° C.). The settings on record: male Chbb:NMRI (SPF)-mice, oral (esophageal tube), dose increasing time of reaction by 100%. On the procedure:
The test performed according to a modification of the method described by CHEN and BECKMAN [Science, 113, 631 (1951)] in male Chbb:NMRI (SPF)-mice with an average weight of 20 grams.
The test substances were administered as trituration in 1% methyl cellulose (0.1 ml/10 gm of mouse) by means of an esophageal tube. Before treatment with the test substance, the animals were twice put on the hot plate at an interval of 30 minutes, whereby their individual times of reaction were measured. After treatment with a test substance, the times of reaction of the animals were again measured in an interval of 30 minutes.
From the average maximum increase of the time of reaction obtained after treatment with different doses, and after linear regression analysis according to LINDER, an ED100 dose with the confidence limits according to FIELLER was calculated. The ED100 dose is one which increased the time of reaction by 100%.

The test system of data set [2] is body temperature of the rat. The data set is described as follows: Effect on the body temperature of the rat (antipyretic activity). The following applies: Chbb:THOM-rats, oral (esophageal tube), dose decreasing rectal body temperature by 1.5° C. On the procedure: The temperature-lowering activity, i.e. antipyretic activity, was tested by the observation of the temperature curve given by rectally measured body temperatures of partially immobilized Chbb:THOM-rats having body weights of between 125 and 150 grams. The body temperatures were measured by thermocouples inserted into rectums. The test substances were administered as a trituration in a 1% methyl cellulose in portions of 1.0 ml/100 gm of animal using an esophageal tube.
From the values for the average maximum decline of temperature, which were gained after the administration of the different doses of the test substance, and after a linear regression analysis according to LINDER, an ED-1.5° C. was calculated with the confidence limits according to FIELLER as the dose which decreases the body temperature by 1.5° C.

A further data set is described as follows: Acute toxicity in mice. The following applies: mouse, in vivo; Chbb:NMRI (SPF)-mice of both sexes, oral (esophageal tube), deaths within 14 days. On the procedure:
(§1) The acute toxicity was determined in Chbb:NMRI (SPF)-mice of both sexes, having an average body weight of 20 gm. The test compounds were administered as a trituration in 1% methyl cellulose (0.5 ml/10 gm of animal) by means of an esophageal tube. The calculation of the LD50 values was effected according to the method of LITCHFIELD and WILCOXON [J. Pharmacol. Exp. Ther. 96, 99 (1949)], based on the percentage of animals which died within 14 days after administration of different doses.

A further data set concerns mice. Kind of data set: Acute toxicity in mice. The settings on record: oral, mice, 14 days. The procedure: as §1
[3] abbreviates: 0.75 h, After Forty-five Minutes.

This note sets out measurements from US4353919A, “Analgesic and antipyretic pharmaceutical compositions containing a benzothiazol-2(3H)-one” (Dr. Karl Thomae Gesellschaft mit beschrankter Haftung, priority 1980, dated 1982).

As to `COc1ccc2sc(=O)[nH]c2c1` [A, 5-methoxy-benzothiazol-2(3H)-one], the ED50 in data set [1] (setting [3]) was found to be 90 mg/kg; in data set [1] (1.5 h, After Ninety Minutes) it was 150 mg/kg. The same molecule showed an ED100 with heat pain of the mouse of 218 mg/kg. This molecule also returned an ED (-1.5 C) in data set [2] of 58 mg/kg. The 50% lethal dose (LD50) at 336 h in “Acute toxicity in mice” was 1600 mg/kg.
For `O=c1[nH]c2ccc(F)cc2s1` [B, 6-fluoro-benzothiazol-2(3H)-one] the same measures were 121 mg/kg, 76 mg/kg, 165 mg/kg, 83 mg/kg and 1650 mg/kg.
For the molecule `O=c1[nH]c2cccc(Cl)c2s1` [C, 7-chloro-benzothiazol-2(3H)-one], the ED50 in data set [1] (setting [3]) was found to be 106 mg/kg; in data set [1] (1.5 h, After Ninety Minutes), 105 mg/kg. Moreover, the LD50 at 336 h in the data set “Acute toxicity in mice” was 10000 mg/kg. Also, the “survival of animals after administration of this dose” value in the data set with mice (10000 mg/kg (footnote * of Table 5)) is given as “all 10 animals survived”.
For the molecule `O=c1[nH]c2ccc(Cl)cc2s1` [D, 6-chloro-benzothiazol-2(3H)-one], the 50% effective dose (ED50) in data set [1] (setting [3]) came out at 175 mg/kg; in data set [1] (1.5 h, After Ninety Minutes) it was 129 mg/kg. The molecule further came in with an ED (-1.5 C) in data set [2] of 103 mg/kg.
Regarding `COc1cc2[nH]c(=O)sc2cc1OC` [E, 5,6-dimethoxy-benzothiazol-2(3H)-one], the ED50 was 43 mg/kg in data set [1] (setting [3]) and 40 mg/kg in data set [1] (1.5 h, After Ninety Minutes). In the data set on heat pain of the mouse, this molecule displayed an ED100 of 92 mg/kg. Besides, the ED (-1.5 C) in data set [2] turned out to be 29 mg/kg.
On to `Cc1cccc2sc(=O)[nH]c12` [F, 4-methyl-benzothiazol-2(3H)-one], for which the ED50 was found to be 174 mg/kg in data set [1] (setting [3]) and 202 mg/kg in data set [1] (1.5 h, After Ninety Minutes). Further, in the data set on heat pain of the mouse, the ED100 amounted to 113 mg/kg. Besides, the ED (-1.5 C) in data set [2] turned out to be 118 mg/kg. Moreover, the median lethal dose (LD50) at 336 h in “Acute toxicity in mice” came to 8000 mg/kg. Besides, the “animals died after administration of this dose” value in the data set on mice (8000 mg/kg (footnote ** of Table 5)) is 4 out of 20 animals died.
For the molecule `Cc1ccc2sc(=O)[nH]c2c1` [G, 5-methyl-benzothiazol-2(3H)-one], the ED50 in data set [1] (setting [3]) came out at 103 mg/kg; in data set [1] (1.5 h, After Ninety Minutes) it was 97 mg/kg. Besides, in the data set on heat pain of the mouse, the ED100 is 178 mg/kg. The molecule also yielded an ED (-1.5 C) in data set [2] of 37 mg/kg. The LD50 at 336 h in “Acute toxicity in mice” is 2650 mg/kg.
On to `O=c1[nH]c2c(Cl)cccc2s1` [H, 4-chloro-benzothiazol-2(3H)-one], for which the ED50 in data set [1] (setting [3]) is 24 mg/kg; in data set [1] (1.5 h, After Ninety Minutes) it was 23 mg/kg. In the data set with heat pain of the mouse, this molecule had an ED100 of 125 mg/kg. This molecule also came in with an ED (-1.5 C) in data set [2] of 16 mg/kg.

Broadly, the ED50 is the dose that gives a 50% effect, or the effect in half of the subjects. Low readings indicate greater potency, high ones weaker potency. Usually LD50 stands for the dose at which mortality reaches 50%. A low value points to a more toxic substance.
